# Assays:
# [1] = system: RAW264.7 cells; assay: Cellular uptake test (intracellular Tri by HPLC); type: cell-based, murine; details: for Reduction in cellular uptake of HA@Tri-BLs: inhibitor or competitor added: free HA 25 μM, HUTCH-1 10 μg/mL, hypertonic sucrose 400 mM, chlorpromazine 25 μM, EIPA 50 μM, vs control without inhibitor
# Description: The cellular uptake of Tri-loaded bilosomes were investigated in RAW264.7 cells, a murine macrophage line. The cells were cultured in a RPMI-1640 medium containing 10% FBS (Gibco, CA, USA) at 37 °C in 5% CO2. When the cells grew to 80 ∼ 90% confluence, they were eligible for the cellular uptake test. Tri solution (dissolve in 75% ethanol), Tri-BLs and HA@Tri-BLs were diluted to 10 μg/mL with the culture medium and introduced into the cell wells for coincubation. To elucidate the uptake mechanism of HA@Tri-BLs, the uptake of HA@Tri-BLs was specially measured in the presence of various cytosis inhibitors or competitor, including hypertonic sucrose (400 mM), chlorpromazine (25 μM), simvastatin (5 μM), genistein (200 μM), free HA (25 μM), HUTCH-1 (10 μg/mL), EIPA (50 μM) and Lantraculin A (2.5 μM) (Deng et al., [2017]). The intracellular drug concentration was determined using HPLC by lysing the cells with RIPA lysis buffer and corrected by the protein content with BCA protein assay kit.
# [2] = Water solubility; type: physicochemical
# [3] = Intra-articular pharmacokinetics and biodistribution in arthritic rats; type: in vivo, Sprague–Dawley (SD) rats
# [4] = Plasma pharmacokinetics in arthritic rats; type: in vivo; details: Sprague-Dawley, rat, iv, i.v. 10 mg/kg, mean ± SD
# Description: The pharmacokinetics and tissue distribution of free Tri, Tri-BLs and HA@Tri-BLs were studied in arthritic rats. Sprague–Dawley (SD) rats weighing 250 ± 20 g were used to establish the arthritic model. The rats were acclimatized for 20 days in a standard animal room and provided with food and water ad libitum. On the 21st day, the rats were received injection of Freund’s complete adjuvant (FCA) containing 10 mg/mL of Mycobacterium tuberculosis (Sigma-Aldrich) at the right foot (Jia and He, [2016]). […] The established arthritic rats were intravenously injected with Tri solution (dissolved in 75% ethanol solution and diluted with deionized water), Tri-BLs and HA@Tri-BLs via the jugular vein at a dose of 10 mg/kg. After administration, aliquots of blood (∼250 μL) were continuously sampled from the caudal vein into heparinized tubes at predetermined intervals.
# Another three groups of arthritic rats were applied for biodistribution study to analyze the in vivo drug distribution of Tri solution, Tri-BLs and HA@Tri-BLs. At 0.5, 1, 2 and 4 h after injection, […] were sacrificed, and the heart, liver, spleen, lung, and kidney as well as the joint were excised or harvested. The drug in the blood and tissue samples was extracted twice with ethyl acetate from the prepared plasma and tissue homogenates (Zhang et al., [2014]). The extracted drug solution was then condensed and reconstituted in 50 μL of methanol for HPLC analysis with gossypol as an internal standard. The experimental protocols settled were reviewed and approved by the Animal Care and Use Committee of Chengdu University of Traditional Chinese Medicine.
molecule,measurement,setting,value
"CCN(c1nc(N)c(C(=O)NC(=N)N)nc1Cl)C(C)C [EIPA, ethylisopropyl amiloride]",Reduction in cellular uptake of HA@Tri-BLs,[1],inhibited the cellular uptake of HA@Tri-BLs to different extents
"CC1=C(O)C(=O)C=C2C1=CC=C1[C@@]2(C)CC[C@@]2(C)[C@@H]3C[C@](C)(C(=O)O)CC[C@]3(C)CC[C@]12C [Tri solution, Tripterine]",Cellular uptake of Tri (intracellular Tri content),"[1]; 10 μg/mL, three incubation times",minimal uptake level
same,Water-solubility,[2],extremely poor water-solubility
same,Cmax,"[3]; Sprague-Dawley, rat, iv, arthritic rats, i.v. 10 mg/kg, joint, mean ± SD, n = 6",652 ± 146 ng/mL
same,AUC(0-t),"[3]; Sprague-Dawley, rat, iv, arthritic rats, i.v. 10 mg/kg, joint, mean ± SD, n = 6, read-out: AUC0−t in the joint",1470 ± 402 ng·h/mL
same,AUC(0-inf),"[3]; Sprague-Dawley, rat, iv, arthritic rats, i.v. 10 mg/kg, joint, read-out: AUC0–∞ pertinent to the joints",1470 ng·h/mL
same,Biodistribution of Tri in organs,"[3]; arthritic rats, 0.5, 1, 2 and 4 h after injection",high distribution in the organs of heart and kidney besides the plasma
same,AUC(0-inf),[4]; n = 6,35900 ± 530 ng·h/mL
same,half-life,[4]; n = 6,6.15 ± 0.22 h
same,clearance,"[4]; n = 6, read-out: CL (total drug clearance from plasma) (converted)",4.65 mL/min
same,Cmax,"[4]; n = 6, read-out: Cmax (maximum plasma concentration)",22600 ± 710 ng/mL
same,MRT,"[4]; n = 6, read-out: MRT (mean residence time)",7.07 ± 0.767 h
same,Vd,"[4]; n = 6, read-out: V (apparent volume of distribution)",1.97 ± 0.35 L
"CN(C)CCCN1c2ccccc2Sc2ccc(Cl)cc21 [chlorpromazine, Chlorpromazine]",Reduction in cellular uptake of HA@Tri-BLs,[1],inhibited the cellular uptake of HA@Tri-BLs to different extents
"OC[C@H]1O[C@@](CO)(O[C@H]2O[C@H](CO)[C@@H](O)[C@H](O)[C@H]2O)[C@@H](O)[C@@H]1O [hypertonic sucrose, sucrose]",Reduction in cellular uptake of HA@Tri-BLs,[1],inhibited the cellular uptake of HA@Tri-BLs to different extents
hyaluronic acid [free HA],Reduction in cellular uptake of HA@Tri-BLs,[1],47.5%

# Reference: publication PMC6713218, “Hyaluronic acid-functionalized bilosomes for targeted delivery of tripterine to inflamed area with enhancive therapy on arthritis” (Drug Delivery, 2019)
